Experiments:
DNA-gyrase = biological target: T1, DNA-gyrase (Escherichia coli, UniProt P0AES4+P0AES6); experiment: DNA-gyrase inhibition, supercoiling method (relaxed pUC18 or pUC19 plasmid DNA as substrate); assay type: biochemical; conditions: E. coli DNA-gyrase
T1 construct: made in house; host or cells: E. coli N4186 and E. coli MK47
Text: The inhibitory action on the DNA-gyrase activity in bacteria can be determined, for example, by means of the supercoiling method described by R. Otter and N. R. Cozzarelli in Methods in Enzymology, Vol. 100, pp. 171-180 (1983). The DNA-gyrase used was isolated from E. coli N4186 and from the sub-unit B of E. coli MK47 (Mitsuchi et al., JBL 159, 9199-9201 (1984)). Relaxed pUC18 or pUC19 plasmid DNA was used as the substrate. The results determined in this test are compiled in the following Table, with the results being expressed as the MNC (maximum non-effective concentration) in μg/ml.

Toxicity, LD50 = conditions: in vivo

T1 sequence (P0AES4 whole entry, one chain of several): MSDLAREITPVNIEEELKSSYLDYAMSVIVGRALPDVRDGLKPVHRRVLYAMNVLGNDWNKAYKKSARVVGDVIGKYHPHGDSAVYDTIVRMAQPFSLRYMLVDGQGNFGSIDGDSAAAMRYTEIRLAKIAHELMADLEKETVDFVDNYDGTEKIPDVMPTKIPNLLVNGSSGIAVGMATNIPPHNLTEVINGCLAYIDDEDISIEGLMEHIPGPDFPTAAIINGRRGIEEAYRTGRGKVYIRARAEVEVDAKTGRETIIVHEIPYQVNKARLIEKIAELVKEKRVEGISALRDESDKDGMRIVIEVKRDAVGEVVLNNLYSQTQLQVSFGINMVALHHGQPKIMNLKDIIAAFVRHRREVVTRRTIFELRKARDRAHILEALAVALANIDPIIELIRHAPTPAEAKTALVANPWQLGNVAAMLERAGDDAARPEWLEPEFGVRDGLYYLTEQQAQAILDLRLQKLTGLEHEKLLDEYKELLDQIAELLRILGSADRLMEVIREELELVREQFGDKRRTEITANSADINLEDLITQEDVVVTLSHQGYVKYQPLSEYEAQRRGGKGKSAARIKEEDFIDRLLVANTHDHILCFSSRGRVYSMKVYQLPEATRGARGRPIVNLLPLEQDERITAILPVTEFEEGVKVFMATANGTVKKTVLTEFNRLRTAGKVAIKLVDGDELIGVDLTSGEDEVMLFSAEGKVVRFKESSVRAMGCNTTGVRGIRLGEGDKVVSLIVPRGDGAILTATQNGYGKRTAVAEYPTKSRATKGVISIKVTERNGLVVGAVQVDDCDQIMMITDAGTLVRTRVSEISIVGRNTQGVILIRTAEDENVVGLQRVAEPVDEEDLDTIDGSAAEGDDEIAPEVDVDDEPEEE

| SMILES | Activity MNC (maximum non-effective concentration) (DNA-gyrase) | LD50 (Toxicity, LD50; iv) | LD50 (Toxicity, LD50; po) |
| --- | --- | --- | --- |
| O=C(O)C(F)(F)F.O=c1cc2n(C3CC3)c3cc(N4CCNCC4)c(F)cc3n2c(=O)[nH]1 [Example 2, 5-cyclopropyl-8-fluoro-7-(1-piperazinyl)-pyrimido[1,6-a]benzimidazole-1,3(2H,5H)-dione trifluoroacetate] | 0.45 µg/mL | 30 mg/kg | > 2000 mg/kg |
| CCn1c2cc(N3CCN(C)CC3)c(F)cc2n2c(=O)[nH]c(=O)cc12 [Example 1, 5-ethyl-8-fluoro-7-(4-methyl-1-piperazinyl)pyrimido[1,6-a]benzimidazole-1,3(2H,5H)-dione] | 2 µg/mL |  |  |
| Cl.O=c1cc2n(C3CC3)c3cc(N4CCNCC4)c(F)cc3n2c(=O)n1O [Example 4, 5-cyclopropyl-8-fluoro-2-hydroxy-7-(1-piperazinyl)-pyrimido[1,6-a]benzimidazole-1,3(2H,5H)-dione hydrochloride] | 2 µg/mL | 30 mg/kg | > 4000 mg/kg |
| CCn1c2cc(N3CCN(C)CC3)c(F)cc2n2c(=O)[nH]c(=S)cc12 [Example 3] | 2 µg/mL |  |  |
| CCn1c2cc(N3CCNCC3)c(F)cc2n2c(=O)[nH]c(=O)cc12 [Example 8, 5-ethyl-8-fluoro-7-(1-piperazinyl)pyrimido[1,6-a]benzimidazole-1,3(2H,5H)-dione] | 1 µg/mL |  |  |

— patent publication US5283248A, “Amino substituted pyrimido[1,6-2]benzimidazoles” (priority 1989, dated 1994)
